In patent US20220071932A1, “Compositions and Methods Against Stress-Induced Affective Disorders and Their Associated Symptoms” (The Trustees of Columbia University in the City of New York, priority 2019, published 2022):

Key:
Format in all cases: in vivo
[1] = test system: 129S6/SvEv mice; assay: Elevated plus maze (EPM); settings: for distance travelled in the EPM / time spent in the open arms and center of the EPM: (R,S)-ketamine 30 mg/kg, FENM 10, 20 or 30 mg/kg
Description: Testing was performed as previously described (47). Briefly, the maze is a plus-cross-shaped apparatus consisting of four arms, two open and two enclosed by walls, linked by a central platform at a height of 50 cm from the floor. Mice were individually placed in the center of the maze facing an open arm and were allowed to explore the maze for 5 min. The time spent in and the number of entries into the open arms was used as an anxiety index. Videos were scored using ANY-maze behavior tracking software (Stoelting, Wood Dale, Ill.).

[2] = test system: 129S6/SvEv mice; assay: Novelty suppressed feeding (NSF); settings: for Novelty Suppressed Feeding, Latency to feed in OF (sec), p (Fisher's LSD): FIG. 8P
Description: Testing was performed as previously described (47). Briefly, the NSF testing apparatus consisted of a plastic box (50×50×20 cm). The floor of which was covered with approximately 2 cm of wooden bedding and the arena was brightly lit (approximately 1000 lux). Mice were food restricted for 24 h prior to testing. At the time of testing, a single pellet of food (regular chow) was placed on a white paper platform positioned in the center of the box. Each animal was placed in a corner of the box, and a stopwatch was immediately started. The latency of the mice to begin eating in the arena was recorded Immediately after the latency was recorded, the food pellet was removed from the arena. The mice were then placed back into their home cage. The latency to eat and the amount of food consumed in 5 min were measured (home cage consumption), followed by an assessment of post-restriction weight. A Kaplan-Meier survival analysis was used due to the lack of normal distribution of data. The Mantel-Cox log-rank test was used to evaluate differences between the experimental groups.

[3] = test system: 129S6/SvEv mice; assay: Contextual fear conditioning (CFC), 3-shock; freezing; settings: for p, Fisher's LSD Saline vs. drug, CFC Re-exposure Freezing Min 1 (%) / p, Fisher's LSD Saline vs. drug, CFC Re-exposure Freezing Min 2 (%) / p, Fisher's LSD Saline vs. drug, CFC Re-exposure Freezing Min 3 (%) / p, Fisher's LSD Saline vs. drug, CFC Re-exposure Freezing Min 4 (%) / p, Fisher's LSD Saline vs. drug, CFC Re-exposure Freezing Min 5 (%) / p, Fisher's LSD Saline vs. drug, CFC Re-exposure Freezing (%): drug 1 week before stress; for p, Fisher's PLSD Saline vs. drug, CFC Re-exposure Freezing Min 1 (%) / p, Fisher's PLSD Saline vs. drug, CFC Re-exposure Freezing Min 2 (%) / p, Fisher's PLSD Saline vs. drug, CFC Re-exposure Freezing Min 3 (%) / p, Fisher's PLSD Saline vs. drug, CFC Re-exposure Freezing Min 4 (%) / p, Fisher's PLSD Saline vs. drug, CFC Re-exposure Freezing Min 5 (%) / p, Fisher's PLSD Saline vs. drug, CFC Re-exposure Freezing (%): drug 5 minutes after stress, FIG. 2C
Description: A 3-shock CFC paradigm was administered as previously described (45, 46). CFC was conducted in chambers obtained from Med Associates (St. Albans, Vt.), with internal dimensions of approximately 20 cm wide×16 cm deep×20.5 cm high. The chambers had metal walls on each side, clear plastic front and back walls and ceilings, and stainless-steel bars on the floor. A house light (CM1820 bulb, 28v, 100 mA) mounted directly above the chamber provided illumination. Each chamber was located inside a larger, insulated, plastic cabinet that provided protection from outside light and noise. Each cabinet contained a ventilation fan that was operated during the sessions. A paper towel dabbed with lemon solution was placed underneath the chamber floor. Mice were held outside the experimental room in their home cages prior to testing and transported to the conditioning apparatus individually in standard mouse cages Chambers were cleaned with 70% EtOH between each set of mice. Mice were placed into the conditioning chamber and received shocks at 180 s, 240 s, and 300 s (2 s duration, 0.75 mA). Fifteen seconds after the last shock, mice were removed from the chamber. Overall, the training session lasted 317 s. […] All sessions were scored for freezing using FreezeFrame4.

[4] = 5 minutes after CFC, re-exposure 5 days after training, vs saline
[5] = non-stressed mice, FENM 20 mg/kg 1 hour before the start of the OF, vs saline
[6] = 5 min after context re-exposure 1, (R,S)-ketamine 30 mg/kg, FENM 20 mg/kg, vs saline
[7] = 5 minutes after CFC, re-exposure 1 day after training, (R,S)-ketamine 30 mg/kg, FENM 20 mg/kg, vs saline
[8] = 5 minutes prior to re-exposure 1, (R,S)-ketamine 30 mg/kg, FENM 20 mg/kg, vs saline

## NC12CC3CC(C1)CC(CCF)(C3)C2 [FENM, 1-amino-3-fluoroethyl-adamantane]
[1]; 1 week prior to CFC, vs saline
  distance travelled in the EPM: did not alter
  time spent in the open arms and center of the EPM: did not alter
[1]; [4]
  distance travelled in the EPM: did not alter
  time spent in the open arms and center of the EPM: did not alter
[1]; [5]
  time in the open arms, closed arms, and center of the EPM: comparable
[1]; t-test, Baseline, anxiety cohort, FENM 20 mg/kg, FIG. 7G
  p, Time in Open Arms (sec), EPM, Saline vs. FENM: 0.5729
[1]; t-test, Baseline, anxiety cohort, FENM 20 mg/kg, FIG. 7H
  p, Time in Closed Arms (sec), EPM, Saline vs. FENM: 0.5729
[1]; t-test, Baseline, anxiety cohort, FENM 20 mg/kg, FIG. 7I
  p, Time in Center (sec), EPM, Saline vs. FENM: 0.3211
[2]; 1 week prior to CFC, (R,S)-ketamine 30 mg/kg, FENM 10, 20 or 30 mg/kg, vs saline
  latency to feed in the open arena (NSF): did not alter
[2]; [6]
  latency to eat in the NSF arena: did not alter
  latency to eat in the homecage (NSF): did not alter
[2]; 5 min prior to CFC, (R,S)-ketamine 30 mg/kg, FENM 20 mg/kg, vs saline
  latency to feed in the open arena (NSF): but not FENM, increased
[2]; [7]
  latency to feed in the home cage (NSF): did not alter
  latency to feed in the open arena (NSF): did not alter
[2]; 5 minutes after CFC, re-exposure 5 days after training, (R,S)-ketamine 30 mg/kg, FENM 10, 20 or 30 mg/kg, vs saline
  latency to feed in the open arena (NSF): did not alter
[2]; [8]
  latency to eat in the NSF arena: did not alter
  latency to eat in the homecage (NSF): did not alter
[2]; (R,S)-ketamine (30 mg/kg) vs. FENM (20 mg/kg)
  Novelty Suppressed Feeding, Latency to feed in OF (sec), p (Fisher's LSD): 0.0130
[2]; Baseline Anxiolytic, dose 20 mg/kg
  Behavior: Hypophagia: ↓
[2]; Log-rank (Mantel-Cox) test, Baseline, anxiety cohort, FENM 20 mg/kg, FIG. 7J
  p, Fraction of mice not eating in OF, NSF, Saline vs. FENM: 0.0210
[2]; Log-rank (Mantel-Cox) test, Baseline, anxiety cohort, FENM 20 mg/kg, FIG. 7K
  p, Fraction of mice not eating in HC, NSF, Saline vs. FENM: 0.7953
[2]; Saline vs. FENM (20 mg/kg)
  Novelty Suppressed Feeding, Latency to feed in OF (sec), p (Fisher's LSD): 0.4585
[2]; [5]
  latency to approach the pellet in the NSF arena: significantly decreased
  latency to eat in the homecage (NSF): did not alter
[2]; t-test, Baseline, anxiety cohort, FENM 20 mg/kg, FIG. 7L
  p, Change in Weight (g), NSF, Saline vs. FENM: 0.1661
[2]; t-test, Baseline, anxiety cohort, FENM 20 mg/kg, FIG. 7M
  p, Food Eaten (g), NSF, Saline vs. FENM: 0.0801
[3]; 10 mg/kg, FIG. 1C
  p, Fisher's LSD Saline vs. drug, CFC Re-exposure Freezing Min 1 (%): 0.4040
  p, Fisher's LSD Saline vs. drug, CFC Re-exposure Freezing Min 2 (%): 0.0961
  p, Fisher's LSD Saline vs. drug, CFC Re-exposure Freezing Min 3 (%): 0.5544
  p, Fisher's LSD Saline vs. drug, CFC Re-exposure Freezing Min 4 (%): 0.0419
  p, Fisher's LSD Saline vs. drug, CFC Re-exposure Freezing Min 5 (%): 0.3855
[3]; 10 mg/kg, after ANOVA, FIG. 1D
  p, Fisher's LSD Saline vs. drug, CFC Re-exposure Freezing (%): 0.1313
[3]; 10 mg/kg, after RMANOVA, FIG. 1C
  p, Fisher's LSD Saline vs. drug, CFC Re-exposure Freezing (%): 0.1313
[3]; 10 mg/kg
  p, Fisher's PLSD Saline vs. drug, CFC Re-exposure Freezing Min 1 (%): 0.1019
  p, Fisher's PLSD Saline vs. drug, CFC Re-exposure Freezing Min 2 (%): 0.0359
  p, Fisher's PLSD Saline vs. drug, CFC Re-exposure Freezing Min 3 (%): 0.0300
  p, Fisher's PLSD Saline vs. drug, CFC Re-exposure Freezing Min 4 (%): 0.1916
  p, Fisher's PLSD Saline vs. drug, CFC Re-exposure Freezing Min 5 (%): 0.6909
[3]; 10 mg/kg, after RMANOVA
  p, Fisher's PLSD Saline vs. drug, CFC Re-exposure Freezing (%): 0.0570
[3]; 20 mg/kg, FIG. 1C
  p, Fisher's LSD Saline vs. drug, CFC Re-exposure Freezing Min 1 (%): 0.2929
  p, Fisher's LSD Saline vs. drug, CFC Re-exposure Freezing Min 2 (%): 0.0225
  p, Fisher's LSD Saline vs. drug, CFC Re-exposure Freezing Min 3 (%): 0.0834
  p, Fisher's LSD Saline vs. drug, CFC Re-exposure Freezing Min 4 (%): 0.0743
  p, Fisher's LSD Saline vs. drug, CFC Re-exposure Freezing Min 5 (%): 0.0027
[3]; 20 mg/kg, after ANOVA, FIG. 1D
  p, Fisher's LSD Saline vs. drug, CFC Re-exposure Freezing (%): 0.015
[3]; 20 mg/kg, after RMANOVA, FIG. 1C
  p, Fisher's LSD Saline vs. drug, CFC Re-exposure Freezing (%): 0.0150
[3]; 30 mg/kg, FIG. 1C
  p, Fisher's LSD Saline vs. drug, CFC Re-exposure Freezing Min 1 (%): 0.0328
  p, Fisher's LSD Saline vs. drug, CFC Re-exposure Freezing Min 2 (%): 0.0080
  p, Fisher's LSD Saline vs. drug, CFC Re-exposure Freezing Min 3 (%): 0.0038
  p, Fisher's LSD Saline vs. drug, CFC Re-exposure Freezing Min 4 (%): 0.0005
  p, Fisher's LSD Saline vs. drug, CFC Re-exposure Freezing Min 5 (%): 0.0807
[3]; 30 mg/kg, after ANOVA, FIG. 1D
  p, Fisher's LSD Saline vs. drug, CFC Re-exposure Freezing (%): 0.0018
[3]; 30 mg/kg, after RMANOVA, FIG. 1C
  p, Fisher's LSD Saline vs. drug, CFC Re-exposure Freezing (%): 0.0018
[3]; 30 mg/kg
  p, Fisher's PLSD Saline vs. drug, CFC Re-exposure Freezing Min 1 (%): 0.8647
  p, Fisher's PLSD Saline vs. drug, CFC Re-exposure Freezing Min 2 (%): 0.4119
  p, Fisher's PLSD Saline vs. drug, CFC Re-exposure Freezing Min 3 (%): 0.3540
  p, Fisher's PLSD Saline vs. drug, CFC Re-exposure Freezing Min 4 (%): 0.0503
  p, Fisher's PLSD Saline vs. drug, CFC Re-exposure Freezing Min 5 (%): 0.3078
[3]; 30 mg/kg, after RMANOVA
  p, Fisher's PLSD Saline vs. drug, CFC Re-exposure Freezing (%): 0.2420
